{"source": "paper PMC9071946", "about": "“In vitro and in silico determination of glutaminyl cyclase inhibitors” (RSC Advances, 2019)", "key": {"[1]": {"target": "human glutaminyl cyclase (hQC) (Homo sapiens, UniProt Q16769)", "sequence (Q16769 29-361)": "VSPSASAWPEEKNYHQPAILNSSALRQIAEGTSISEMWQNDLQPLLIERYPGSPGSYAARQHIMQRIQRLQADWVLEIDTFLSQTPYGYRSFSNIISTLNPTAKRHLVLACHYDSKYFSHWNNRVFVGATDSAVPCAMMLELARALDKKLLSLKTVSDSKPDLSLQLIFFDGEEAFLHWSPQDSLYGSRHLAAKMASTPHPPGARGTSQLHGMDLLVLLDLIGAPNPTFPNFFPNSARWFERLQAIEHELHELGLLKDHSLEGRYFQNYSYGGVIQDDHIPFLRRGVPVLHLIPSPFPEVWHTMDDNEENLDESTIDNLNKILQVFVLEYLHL", "test": "hQC inhibition, fluorometric assay with fluorogenic substrate Glu-AMC and pGAPase", "protocol": "The synthesized compounds were evaluated for hQC inhibition by a fluorometric assay with a fluorogenic substrate, Glu-AMC·HBr (L-glutamine 7-amido-4-methylcoumarin, BACHEM, Switzerland), and an auxiliary enzyme, pyroglutamyl peptidase (pGAPase, 50 units, Qiagen, Germany), as our previously reported.[29] The used buffer consisted of 25 mM HEPES (Sigma), with pH 7.0, adjusted with HCl. […] After incubation in 96-well black plates (Greiner, Austria) for 10 min at 37 °C, the reaction was started by adding 50 μL of hQC solution (0.04 μg mL^−1). The excitation/emission wavelengths at 380/460 nm were correlated with the amount of ACM, the last product of the enzymatic process."}, "human QC": {"test_system": "human QC", "conditions": "ref bindingdb.org, cited from earlier work"}, "[2]": {"design": "method as in PMID 26101580", "conditions": "cited from earlier work"}, "[3]": {"conditions": "IC50 for inhibition of the hQC enzyme, Table 1, HEPES pH 7.0, 37 °C"}, "[4]": {"conditions": "Table 2, from IC50 assumed equal to the inhibition constant ki"}, "[5]": {"conditions": "supplement Table S1, compounds 1_x and 3_x"}}, "data": [{"smiles": "COc1cc2nc(NCCCn3cncc3C)sc2cc1OC", "note": "[Compound 1_1]", "values": [{"measurement": "IC50", "setting": "[1]; IC50, supplement Table S3", "result": 0.305, "unit": "µM"}, {"measurement": "IC50", "setting": "[1]; [3]", "result": "0.3 ± 0.09", "unit": "µM"}, {"measurement": "ΔGEXP", "setting": "[1]; [4]", "result": -37.4, "unit": "kJ/mol"}]}, {"smiles": "COc1cc2nc(NCCCn3cncc3C)[nH]c2cc1OC", "note": "[Compound 1_2, 5,6-dimethoxy-N-(3-(5-methyl-1H-imidazol-1-yl)propyl)-1H-benzo[d]imidazol-2-amine]", "values": [{"measurement": "IC50", "setting": "[1]; IC50, supplement Table S3", "result": 0.107, "unit": "µM"}, {"measurement": "IC50", "setting": "[1]; [3]", "result": "0.11 ± 0.03", "unit": "µM"}, {"measurement": "ΔGEXP", "setting": "[1]; [4]", "result": -40, "unit": "kJ/mol"}, {"measurement": "more potent than 1_1", "setting": "[1]; ratio of IC50 values", "result": 2, "unit": "folds"}]}, {"smiles": "COc1ccc(Nc2nc(CCn3cncc3C)cs2)cc1OC", "note": "[Compound 1_3]", "values": [{"measurement": "IC50", "setting": "[1]; IC50, supplement Table S3", "result": 0.316, "unit": "µM"}, {"measurement": "IC50", "setting": "[1]; [3]", "result": "0.32 ± 0.1", "unit": "µM"}, {"measurement": "ΔGEXP", "setting": "[1]; [4]", "result": -37.3, "unit": "kJ/mol"}]}, {"smiles": "COc1ccc(Nc2nnc(CCn3cncc3C)o2)cc1OC", "note": "[Compound 1_4]", "values": [{"measurement": "IC50", "setting": "[1]; IC50, supplement Table S3", "result": 0.42, "unit": "µM"}, {"measurement": "IC50", "setting": "[1]; [3]", "result": "0.42 ± 0.06", "unit": "µM"}, {"measurement": "ΔGEXP", "setting": "[1]; [4]", "result": -36.6, "unit": "kJ/mol"}, {"measurement": "ΔGEXP", "setting": "[1]; [5]", "result": -36.4, "unit": "kJ/mol"}]}, {"smiles": "COC(=O)C(C)NC(=O)C(Cc1ccccc1)NCCCn1cncc1C", "note": "(stereo not shown) [Compound 3_1]", "values": [{"measurement": "IC50", "setting": "[1]; IC50, supplement Table S3", "result": 0.637, "unit": "µM"}, {"measurement": "IC50", "setting": "[1]; [3]", "result": "0.64 ± 0.09", "unit": "µM"}, {"measurement": "ΔGEXP", "setting": "[1]; [4]", "result": -35.6, "unit": "kJ/mol"}, {"measurement": "ΔGEXP", "setting": "[1]; [5]", "result": -35.4, "unit": "kJ/mol"}]}, {"smiles": "Cc1cncn1CCCNC(Cc1ccccc1)C(=O)NC(C)C(N)=O", "note": "(stereo not shown) [Compound 3_3]", "values": [{"measurement": "IC50", "setting": "[1]; IC50, supplement Table S3", "result": 0.446, "unit": "µM"}, {"measurement": "IC50", "setting": "[1]; [3]", "result": "0.45 ± 0.04", "unit": "µM"}, {"measurement": "ΔGEXP", "setting": "[1]; [4]", "result": -36.3, "unit": "kJ/mol"}, {"measurement": "ΔGEXP", "setting": "[1]; [5]", "result": -35.9, "unit": "kJ/mol"}]}, {"smiles": "c1ccc(Cn2ccnc2)cc1", "note": "[Compound 77918]", "values": [{"measurement": "ΔGEXP", "setting": "human QC; supplement Table S1, ligands 1-12", "result": -37.8, "unit": "kJ/mol"}, {"measurement": "Ki", "setting": "human QC; supplement Table S3", "result": 0.262, "unit": "µM"}]}, {"smiles": "COc1cc(NC(=S)NCCCn2ccnc2)ccc1O[11CH3]", "note": "[[^11C]PBD150]", "values": [{"measurement": "permeation of the BBB", "setting": "[2]", "result": "impossible permeation the BBB"}]}]}
